Assay results from patent US8765707B2, “MicroRNA-140-5p as a tumor suppressor and sensitizing agent for chemotherapy” (University of Houston System, priority 2011, dated 2014).
“Also recorded” adds a separate entry of the source.

How the values were obtained:
MYCN = MYCN induction in conditional MYCN3 cell line (QPCR); assay type: cell-based; settings: 1 ug/ml doxorubicin
Procedure: In FIG. 1 using a conditional MYCN cells line MYCN3, neuroblastoma patients with high and low MYCN were simulated. […] Induced MYCN is functional as shown by alteration in cell cycle distribution 24 hours after exposure to doxorubicin. Chip-PCR results for E-boxes of two known MYCN target genes MIR17HG and MDM2 confirming the specificity of the immunoprecipitation and relative enrichment for MYCN target gene promoters.

[1] = system: CHLA255 neuroblastoma cell line; experiment: MTT proliferation assay in CHLA255 neuroblastoma cells; assay type: cell-based; settings: CHLA255 stable cell line expressing microRNA with GFP, compared to control cells
Procedure: (§1) […] sequences (SEQ ID NOS: 3-4), which mimic miR-140-5p wildtype (SEQ ID NO: 1) and mutant miR-140-5p (SEQ ID NO: 2), were transfected into CHLA255 neuroblastoma cell line upper-GFP vector. Table 1 identifies the nucleotide sequences of the wildtype and mutant microRNAs and their mimics. The altered nucleotides in the mutant sequences are shown in bold.
(§2) The impact of these sequences on these cells was measured by increase in absorbance from the MTT assay (FIG. 2A) and the ability to form colonies on a soft agar plate in a clonogenicity assay (FIG. 2B). Stable cell line expression of microRNAs with GFP were compared to control cells. […] Colony formation assays were carried out in soft agar-representative wells showing colony growth at 10 days. Colonies were stained and counted by eye or by digital image analysis software.

[2] = system: CHLA-255 neuroblastoma tumors; experiment: In vivo orthotopic xenograft model of neuroblastoma; set-up: species or system mouse; settings: tumors over-expressing miR-140-5p vs control CHLA-255; Kruskal-Wallis p<0.01; n=9
Text: FIG. 3 illustrates the impact of miR-140-5p on in vivo orthotopic xenograft model of neuroblastoma. *Kruskal-Wallis method p<0.01; mean±SEM; n=9 in miR-140-5p cohort, n=10 in all other cohorts. Using the contralateral kidney (*) for comparison the average tumor weight for each cohort+SEM.

[3] = system: CHLA255 neuroblastoma cell line; experiment: Soft agar colony formation (clonogenicity) assay; assay type: cell-based; settings: CHLA255, colony growth at 10 days, triplicate experiments
Procedure: as §1, §2

COc1cccc2c1C(=O)c1c(O)c3c(c(O)c1C2=O)C[C@@](O)(C(=O)CO)C[C@@H]3O[C@H]1C[C@H](N)[C@H](O)[C@H](C)O1 [doxorubicin]
Increase in MYCN mRNA message level (MYCN): 20 fold

miR-140-5p: SEQ ID NO: 1, CAGUGGUUUUACCCUAUGGUAG (listed as RNA, chemistry not given here)
Proliferation as measured by increase in absorbance from MTT assay [1]: consistently decrease the proliferation rates; also recorded: significantly decreases the proliferation
Average tumor weight [2]: significantly smaller than control; also recorded: significantly suppresses in vivo tumor growth and burden
Colony counts in soft agar [3]: significantly decrease colonies
